Laboratory results: ChEMBL document CHEMBL1148967, “Correction of the structure of a new sesquiterpene from Cistus creticus ssp. creticus” (J Nat Prod, 2004)
The source made the active and inactive calls. The calls are words filed in the database; no cut-off is given here.

Assays:
MCF7 = test: Cytotoxicity against human MCF7 cells assessed as reduction in growth rate at 100 uM after 48 hrs; type: functional; set-up: scale not given: the % may be the effect or the level left
SF-268 = test: Cytotoxicity against human SF268 cells assessed as reduction in growth rate at 100 uM after 48 hrs; type: functional, cell-based
NCI-H460 = test: Cytotoxicity against human H460 cells assessed as reduction in growth rate at 100 uM after 48 hrs; type: functional; set-up: scale not given: the % may be the effect or the level left
PBMC = test: Cytotoxicity against human PBMC assessed as reduction in growth rate at 100 uM after 48 hrs; type: cell-based

C=C(C)[C@H]1CC=C2CCC[C@@H](C)[C@]2(C)C1
Activity (MCF7): 93.6% | Activity (SF-268): inactive | Activity (NCI-H460): 80.8% | Activity (PBMC): Non-toxic
